Data as given in the NIST ThermoML archive (doi:10.1021/je034102r).

Experiment: molar heat capacity at constant pressure
Conditions: 101.33 kPa, Liquid, heat bridge-scanning calorimeter

CCCCn1cc[n+](C)c1.F[P-](F)(F)(F)(F)F [1-butyl-3-methylimidazolium hexafluorophosphate]
Conditions	molar heat capacity at constant pressure [J/K/mol]
408.32 K	474.58
408.61 K	473.73
408.74 K	473.45
408.88 K	473.45
409.01 K	473.45
409.14 K	473.73
409.27 K	474.02
409.4 K	474.02
409.53 K	473.73
409.67 K	473.73
409.8 K	474.3
409.93 K	474.58
410.22 K	475.15
410.35 K	474.58
410.48 K	474.3
410.61 K	474.3
410.74 K	474.58
410.88 K	474.3
411.01 K	474.3
411.14 K	474.02
411.27 K	473.73
411.58 K	475.72
411.71 K	475.72
411.84 K	476.01
411.97 K	476.01
412.11 K	475.72
412.24 K	475.15
412.37 K	474.58
412.5 K	474.87
412.63 K	474.58
412.77 K	475.15
412.9 K	475.15
413.18 K	474.58
413.31 K	474.58
413.45 K	474.3
413.58 K	474.3
413.71 K	474.3
413.84 K	474.3
413.97 K	474.02
414.11 K	474.02
414.24 K	474.3
414.53 K	474.58
414.67 K	475.44
414.8 K	476.01
414.93 K	476.29
415.07 K	476.29
415.2 K	476.57
415.33 K	476.01
415.47 K	476.01
415.6 K	475.72
415.73 K	475.44
415.87 K	475.44
416.15 K	475.44
416.29 K	475.44
416.42 K	475.15
416.55 K	474.87
416.69 K	475.15
416.82 K	475.15
416.95 K	475.72
417.08 K	476.01
417.22 K	477.43
417.52 K	476.57
417.65 K	476.86
417.8 K	476.57
417.93 K	476.29
418.06 K	476.29
418.2 K	475.72
418.33 K	475.72
418.46 K	475.72
418.6 K	475.44
418.73 K	476.01
418.86 K	477.14
419.15 K	478.56
419.29 K	477.71
419.42 K	477.14
419.55 K	476.57
419.69 K	476.57
419.82 K	476.29
419.96 K	476.57
420.09 K	476.57
420.22 K	476.29
420.52 K	477.14
420.66 K	476.57
420.79 K	477.14
420.92 K	477.14
421.06 K	477.14
421.19 K	477.43
421.33 K	476.86
421.46 K	476.86
421.59 K	476.86
421.73 K	476.57
421.86 K	476.57
422.15 K	477.14
422.28 K	477.99
422.42 K	478.56
422.55 K	478.28
422.69 K	477.99
422.82 K	477.71
422.95 K	477.71
423.09 K	477.99
423.22 K	478.56
423.52 K	477.71
423.65 K	477.43
423.79 K	477.71
423.92 K	477.71
424.05 K	477.71
424.2 K	477.99
424.34 K	478.28
424.47 K	478.56
424.61 K	478.85
424.74 K	478.28
424.87 K	478.28
425.17 K	478.85
425.3 K	478.85
425.43 K	478.56
425.57 K	478.28
425.7 K	478.85
425.84 K	479.42
425.97 K	480.84
426.11 K	481.4
426.24 K	480.55
426.54 K	479.7
426.67 K	479.42
426.81 K	479.13
426.94 K	479.42
427.08 K	479.42
427.21 K	479.42
427.35 K	479.13
427.48 K	479.13
427.62 K	478.85
427.75 K	479.13
427.89 K	479.13
428.18 K	479.13
428.32 K	479.7
428.45 K	479.98
428.59 K	479.98
428.72 K	479.98
428.85 K	479.7
428.99 K	479.7
429.12 K	479.42
429.26 K	479.42
429.56 K	479.7
429.69 K	479.7
429.83 K	480.27
429.96 K	480.55
430.1 K	480.55
430.23 K	480.55
430.37 K	481.12
430.51 K	480.84
430.65 K	480.55
430.78 K	480.55
430.92 K	480.55
431.21 K	480.27
431.35 K	480.27
431.48 K	480.55
431.62 K	481.12
431.75 K	481.4
431.89 K	481.69
432.02 K	481.12
432.16 K	481.12
432.29 K	480.84
432.59 K	481.12
432.72 K	481.12
432.86 K	481.12
432.99 K	481.12
433.13 K	481.12
433.27 K	481.12
433.4 K	481.12
433.54 K	481.4
433.67 K	482.83
433.81 K	484.25
433.95 K	483.96
434.24 K	482.54
434.37 K	482.54
434.51 K	483.11
434.65 K	483.11
434.78 K	482.83
434.92 K	482.54
435.05 K	482.54
435.19 K	482.26
435.32 K	482.26
435.62 K	482.83
435.76 K	483.11
435.9 K	483.11
436.03 K	483.39
436.17 K	483.39
436.3 K	483.11
436.44 K	483.68
436.57 K	483.96
436.71 K	483.39
436.85 K	483.68
